Laboratory results taken from patent US20240318196A1, “BRASSICA EVENT MON94100 AND METHODS OF USE THEREOF” (Monsanto Technology LLC, priority 2018, published 2024).

Assays:
[1] = tested on: non-transgenic plants of the same germplasm; assay: Volunteer control: greenhouse plant injury rate after synthetic auxin herbicide spray; type: in vivo, Brassica; settings: for Plant Injury Rates (%) After Herbicide Spray, Control: sprayed at V3 stage, 9 days after treatment, greenhouse
Procedure: (§1) Plants comprising Brassica Event MON94100 and non-transgenic plants of the same germplasm as a control were grown in a greenhouse in a randomized complete block design. Plants were sprayed at V3 stage with one of four synthetic auxin herbicides: dicamba (as XtendiMax®), 2,4-D amine 4 (dimethylamine salt of 2,4-dichlorophenoxyacetic acid), bromoxynil (3,5-dibromo-4-hydroxybenzonitrile as Buctril®), and MCPA amine (4-chloro-2-methylphenoxy acetic acid) in a randomized pattern. Plant injury rate was taken at 9 days after treatment.

[2] = tested on: Plants comprising Brassica Event MON94100; assay: as above; type: in vivo; settings: for Plant Injury Rates (%) After Herbicide Spray, MON94100: sprayed at V3 stage, 9 days after treatment, greenhouse
Procedure: as §1

Structure (SMILES)	Plant Injury Rates (%) After Herbicide Spray, Control ([1]; 1× rate) [%]	Plant Injury Rates (%) After Herbicide Spray, Control ([1]; 2× rate) [%]	Plant Injury Rates (%) After Herbicide Spray, MON94100 ([2]; 1× rate) [%]	Plant Injury Rates (%) After Herbicide Spray, MON94100 ([2]; 2× rate) [%]	Plant injury rate ([1]; commercial rate (1X), sprayed at V3, 9 days after treatment, control plants) [%]	Plant injury rate ([2]; commercial rate (1X), sprayed at V3, 9 days after treatment, plants comprising Brassica Event MON94100)
Cc1cc(Cl)ccc1OCC(=O)O [MCPA, 4-chloro-2-methylphenoxy acetic acid]	71.5	85.0	73.0	86.5	–	–
CNC.O=C(O)COc1ccc(Cl)cc1Cl [2,4-D amine, dimethylamine salt of 2,4-dichlorophenoxyacetic acid]	73.0	82.0	74.5	83.5	–	–
N#Cc1cc(Br)c(O)c(Br)c1 [bromoxynil, 3,5-dibromo-4-hydroxybenzonitrile]	83.3	90.6	80.5	90.3	–	–
COc1c(Cl)ccc(Cl)c1C(=O)O [dicamba, 3,6-dichloro-2-methoxybenzoic acid]	21.3	–	0.0	–	21.3	no injury
